From PMC4652989, “A small-molecule inhibitor suppresses the tumor-associated mitochondrial NAD(P)^+-dependent malic enzyme (ME2) and induces cellular senescence” (Oncotarget, 2015)
Where two headings read alike, the source gives them in different places.

Experiments:
H1299 cells [1] = assay type: cell-based, human; conditions: for H1299 cell number / decrease of H1299 cell number compared with the control: 24 h; for H1299 cell growth, time course: within 48 h
Experimental: H1299 cells were grown in 90% Dulbecco's Modified Eagle Medium (DMEM) with 10% fetal bovine serum (FBS) (Gibco BRL, USA) at a temperature of 37°C in a humidified 5% CO2 environment. Cells were seeded in 6-well cell culture dishes in triplicate at a density of 1 × 10^5 cells/ml medium containing 10% FBS and treated with EA or siRNA at the indicated dosage. The cells were then counted, and cell numbers were determined at the indicated time points. The control shLuc and ME2 shRNA were purchased from the Nature RNAi Core Facility, Taipei, Taiwan (NRC). The shME2 was made using pLKO 005 (TRC2 vector). The target shRNA sequence for ME2 is 5′-[…]-3′, and the target shRNA sequence for luciferase is 5′-[…]-3′.

[2] = test system: m-NAD(P)-ME mRNA in H1299 cells; assay: RT-PCR of ME2 in H1299 cells; assay type: cell-based, human; conditions: EA for 12 h
Experimental: Total RNA was isolated from H1299 cells treated with shME2 or EA for 12 h by using a total RNA reagent (MDBio, Inc., Taiwan). One microgram of RNA was reverse transcribed into cDNA using MMLV reverse transcriptase (Epicentre Biotechnologies, USA). PCR was performed in the linear range (by 25 cycles) with primers specific for ME2 and actin. The primer sequences used to amplify the target genes were as follows: ME2 forward primer, 5′-[…]-3′; ME2 reverse primer, 5′-[…]-3′; actin forward primer, 5′-[…]-3′, and reverse primer, 5′-[…]-3′.

H1299 cells [3] = assay: senescence-associated β-galactosidase (SA-β-gal) assay; assay type: cell-based, human
Experimental: Cells were washed in PBS, fixed for 4 min at room temperature in approximately 2 to 3% formaldehyde or 0.2% glutaraldehyde, washed, and then incubated at 37°C under no C0_2 conditions with fresh SA-β-Gal stain solution. Cells were stained with 5-bromo-4-chloro-3-indolyl β-D-galactoside (X-Gal) for 2 to 16 h and detected using the senescence-associated β-galactosidase (SA-β-gal) assay. The percentages of SA-β-gal^+ cells were calculated by the number of positively stained cells per 1,000 cells counted in random fields.

[4] = test system: m-NAD(P)-ME protein expression in H1299 cells; assay: immunoblotting of m-NAD(P)-ME in H1299 cells; assay type: cell-based, human; conditions: various concentrations of EA, within 24 h, Western blot
Experimental: The supernatants were boiled in loading buffer, and an aliquot containing 100 μg of protein was separated by SDS-PAGE. After blotting, the PVDF membranes were incubated with anti-human m-NAD(P)-ME (ME2) (Sigma, St Louis, MO) and anti-β-actin antibodies (Santa Cruz) for 6 h, and membranes were then incubated for 1 h with the second antibody labeled with horseradish peroxidase. The antigen-antibody complexes were visualized using enhanced chemiluminescence (Amersham Pharmacia Biotech, USA).

m-NAD(P)-ME R91A = biological target: T1, m-NAD(P)-ME R91A (Homo sapiens, UniProt P23368, R91A); assay: malic enzyme activity inhibition, fumarate site mutant; assay type: biochemical; conditions: R91A pre-incubated with 40 μM EA
T1 construct: made in house; host or cells: Escherichia coli BL21
Experimental: (§1) The malic enzyme reaction was assayed in a reaction buffer containing 50 mM Tris-HCl (pH 7.4) with saturated concentrations of L-malate, NAD^+ or NADP^+ and MgCl2, with various concentrations of EA in a total volume of 1 ml at 30°C. The absorbance at 340 nm was continuously monitored in a UV/VIS spectrophotometer Lambda 25 (Perkin Elmer, MA, USA). In this process, one unit of enzyme was defined as the amount of enzyme that produces 1 μmol of NAD(P)H per min under the assay conditions. An absorption coefficient of 6.22 cm^−1mM^−1 for NAD(P)H was used in the calculations.
(§2) The inhibition experiments were conducted with a series of EA concentrations in a buffer containing 50 mM Tris-HCl (pH 7.4), 40 mM malate (pH 7.4), 10 mM MgCl2 and 2 mM NAD^+ (pH 7.4).

m-NAD(P)-ME E59N = biological target: T2, m-NAD(P)-ME E59N (Homo sapiens, UniProt P23368, E59N); assay: as above; assay type: biochemical; conditions: E59N pre-incubated with 40 μM EA
T2 construct: made in house; host or cells: Escherichia coli BL21
Experimental: as §1, §2

m-NAD(P)-ME Q51A/E90A = biological target: T3, m-NAD(P)-ME Q51A/E90A (Homo sapiens, UniProt P23368, E90A/Q51A); assay: malic enzyme activity inhibition, dimer interface mutant; assay type: biochemical; conditions: Q51A/E90A pre-incubated with 40 μM EA
T3 construct: made in house; host or cells: Escherichia coli BL21
Experimental: as §1, §2

T2 sequence (P23368 19-584 E59N): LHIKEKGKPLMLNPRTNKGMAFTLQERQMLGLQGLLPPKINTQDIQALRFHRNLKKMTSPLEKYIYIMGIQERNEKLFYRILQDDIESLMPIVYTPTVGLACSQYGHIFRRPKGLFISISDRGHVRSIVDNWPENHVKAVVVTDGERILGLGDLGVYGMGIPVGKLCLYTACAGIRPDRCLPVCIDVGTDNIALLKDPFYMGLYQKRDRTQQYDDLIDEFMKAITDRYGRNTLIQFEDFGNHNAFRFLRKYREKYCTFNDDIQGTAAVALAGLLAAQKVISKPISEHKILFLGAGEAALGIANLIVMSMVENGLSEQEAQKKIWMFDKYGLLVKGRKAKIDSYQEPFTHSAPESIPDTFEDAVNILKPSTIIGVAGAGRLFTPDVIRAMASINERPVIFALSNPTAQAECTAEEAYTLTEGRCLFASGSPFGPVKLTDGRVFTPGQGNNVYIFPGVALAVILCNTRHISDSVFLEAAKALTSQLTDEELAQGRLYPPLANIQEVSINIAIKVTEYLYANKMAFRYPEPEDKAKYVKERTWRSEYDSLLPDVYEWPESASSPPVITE
T1 sequence (P23368 19-584 R91A): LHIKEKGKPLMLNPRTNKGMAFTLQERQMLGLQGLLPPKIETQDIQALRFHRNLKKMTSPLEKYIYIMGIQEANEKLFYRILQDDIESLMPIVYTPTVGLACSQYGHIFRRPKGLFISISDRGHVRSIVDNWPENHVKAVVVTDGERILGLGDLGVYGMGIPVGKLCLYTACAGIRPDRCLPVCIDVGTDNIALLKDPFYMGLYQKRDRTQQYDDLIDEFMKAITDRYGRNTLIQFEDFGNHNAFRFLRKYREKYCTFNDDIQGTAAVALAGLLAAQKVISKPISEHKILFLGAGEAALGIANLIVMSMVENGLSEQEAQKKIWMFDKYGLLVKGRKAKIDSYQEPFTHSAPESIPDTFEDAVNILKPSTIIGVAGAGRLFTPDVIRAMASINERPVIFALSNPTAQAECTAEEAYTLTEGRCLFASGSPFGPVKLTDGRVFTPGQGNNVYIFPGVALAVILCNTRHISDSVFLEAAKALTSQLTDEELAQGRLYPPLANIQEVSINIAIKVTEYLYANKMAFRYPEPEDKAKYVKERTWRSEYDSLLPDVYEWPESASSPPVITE
T3 sequence (P23368 19-584 Q51A/E90A): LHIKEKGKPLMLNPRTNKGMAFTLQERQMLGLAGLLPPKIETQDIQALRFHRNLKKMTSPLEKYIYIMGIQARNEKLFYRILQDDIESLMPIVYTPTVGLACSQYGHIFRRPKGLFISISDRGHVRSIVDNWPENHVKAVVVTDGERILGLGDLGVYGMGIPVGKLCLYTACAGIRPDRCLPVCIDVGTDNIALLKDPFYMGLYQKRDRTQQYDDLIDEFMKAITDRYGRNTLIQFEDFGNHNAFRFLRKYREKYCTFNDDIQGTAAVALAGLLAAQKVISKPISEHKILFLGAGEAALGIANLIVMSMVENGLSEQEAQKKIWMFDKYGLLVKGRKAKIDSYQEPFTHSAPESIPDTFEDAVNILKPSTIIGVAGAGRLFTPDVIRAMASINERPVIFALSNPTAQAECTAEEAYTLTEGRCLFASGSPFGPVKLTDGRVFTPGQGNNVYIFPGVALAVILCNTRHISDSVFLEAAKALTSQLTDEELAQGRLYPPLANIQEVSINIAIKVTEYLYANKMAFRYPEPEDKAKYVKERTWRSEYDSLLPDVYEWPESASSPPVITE

O=C(O)c1cc2ccccc2c(Cc2c(O)c(C(=O)O)cc3ccccc23)c1O [Embonic acid, embonic acid]
H1299 cell number (H1299 cells [1]; 5 nM EA): did not decrease | H1299 cell number (H1299 cells [1]; 10 nM EA): did not decrease | decrease of H1299 cell number compared with the control (H1299 cells [1]; 100 nM EA): 23% | decrease of H1299 cell number compared with the control (H1299 cells [1]; 1 μM EA): 30% | H1299 cell growth, time course (H1299 cells [1]; 1 μM EA): inhibited H1299 cell growth | decrease of H1299 cell number compared with the control (H1299 cells [1]; 10 μM EA): 40% | H1299 cell growth, time course (H1299 cells [1]; 10 μM EA, vs 1 μM): more pronounced | mRNA synthesis of m-NAD(P)-ME in H1299 cells [2]: not influenced | number of SA-β-gal+ H1299 cells (H1299 cells [3]; 1 μM EA, 0-72 h): increased in a time-dependent manner | EA-induced H1299 cell senescence (H1299 cells [3]; 10 μM EA, within 72 h, vs 1 μM): more prominent | amount of senescence after 10 μM EA relative to 1 μM EA (H1299 cells [3]; time course 0-72 h, SA-β-gal+ cells): 2 fold | protein expression of m-NAD(P)-ME in H1299 cells [4]: not influenced

O=C(O)/C=C/C(=O)O [fumarate]
restoration of EA-inhibited enzyme activity by fumarate (m-NAD(P)-ME R91A): could not be restored | restoration of EA-inhibited enzyme activity by fumarate (m-NAD(P)-ME E59N): could not be restored | restoration of EA-inhibited enzyme activity by fumarate (m-NAD(P)-ME Q51A/E90A): could not be restored
